Entries after “also recorded” stand apart in the source; their conditions may differ. Where two headings read alike, the source gives them in different places.
Legend:
IAPP = target: T1, IAPP (Homo sapiens, UniProt P10997); assay: ThT-based kinetic assay of IAPP aggregation; assay type: biochemical; conditions: for effect on IAPP fibrillation / amyloid formation (ThT): equimolar ratio (IAPP 10 μM, FIG. 25c, 26c, 27m)
T1 construct: purchased Anaspec (Fremont, Calif., USA)
T1 sequence (P10997 34-70 limits assumed): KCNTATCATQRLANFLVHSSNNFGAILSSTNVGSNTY
Experimental: Kinetic assays were conducted on a FlexStation 3 Multi-Mode Microplate reader from Molecular Devices (Sunnyvale, Calif., USA). Experiments were conducted in triplicate in a 96-well plate with a final volume of 200 μL per well. Every measurement was an average of 50 readings. The aggregation of an amyloidogenic peptide (Aβ40, Aβ42, or IAPP) was initiated by the addition of the peptide from a stock solution (in DMSO, 0.5-1 mM) to phosphate buffer. The final concentration of each peptide was different based on their aggregation. The stoichiometry of ThT dye for each peptide was 0.5:1 (ThT:peptide). Peptide aggregation was monitored by ThT fluorescence (λex=445 nm and λem=485 nm). The blank sample contained all the components of the peptide samples except the peptide. The sample data were processed by subtracting the fluorescence of the blank sample. The fluorescence intensity data was then normalized by setting the maximum value to 1.
Kinetic assays in the presence of the compounds of the invention were conducted under the same conditions. The small molecules were added from a stock solution (1 mM or 10 mM in DMSO) to keep the final concentration of DMSO less than 1.0% (v/v). Small molecules were added to the wells with ThT and buffer and mixed gently with a pipette before adding the peptide. To keep the conditions identical, an equal amount of DMSO was added to the wells with the peptide-only control reactions.
Kinetic profiles were processed using Origin (version 9.1). Kinetic curves were fit using the built-in sigmoidal fit. Each run was fit independently to extract the t50 (time required to reach 50% of the maximum fluorescence intensity). Error bars represent standard deviations from the mean of at least three independent experiments.

Aβ42 [1] = target: T2, Aβ42 (Homo sapiens, UniProt P05067); assay: Seed-catalyzed kinetic assay, Aβ42; assay type: biochemical; conditions: equimolar ratio, preformed fibers (seeds)
T2 construct: Cleavage of APP results in several Aβ isoforms; The predominant species are Aβ42 and Aβ40; purchased Anaspec (Fremont, Calif., USA)
T2 sequence (P05067 672-713 limits assumed): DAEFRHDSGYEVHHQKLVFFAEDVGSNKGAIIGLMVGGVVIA
Experimental: Seeds of Aβ40/Aβ42 were prepared by incubating 200 μM of Aβ40/Aβ42 in phosphate buffer at room temperature. The samples were aged for 48 h and the formation of fibers was confirmed by TEM and ThT before storage at −20° C. until use. For the aggregation of Aβ40, 10% (based on the monomeric Aβ40, v/v) seeds were added along with ThT in phosphate buffer to the 96-well plate. The aggregation was initiated by the addition of monomeric Aβ40 followed by gentle mixing. The process was similar in the case of Aβ42 except that the seed concentration was 5% (based on the monomeric Aβ42, v/v).
The seeds were generated by aging 200 μM Aβ peptides for 48 h in phosphate buffer with occasional vortexing. The concentration of seeds was calculated based on the monomeric concentration of Aβ.

Aβ42 [2] = target: T2, Aβ42; assay: ELISA with Aβ oligomer-specific antibody (OMAB); assay type: biochemical; conditions: for Aβ42 oligomers by ELISA on delayed addition: 2 μM Aβ42, compound added at 3 h and 6 h, equimolar; for ELISA absorbance (soluble Aβ42 oligomers, OMAB): Aβ42 incubated with compound, equimolar ratio, all time points
Experimental: The ELISA was performed according to a previously published method (see Lindhagen-Persson, M.; Brännström, K.; Vestling, M.; Steinitz, M.; Olofsson, A. PLoS ONE 2010, 5, e13928). A Nunc-Immuno MaxiSorp plate (Sigma Aldrich, St. Louis, Mo., USA) was incubated with 2 μg mL^−1 Aβ oligomer-specific antibody (OMAB, Agrisera, Sweden) in PBS buffer overnight at 4° C. (200 μl/well). Wells were blocked with 5% fat-free milk in PBS buffer with 0.1% Tween 20 (PBST) for 1 h at 4° C. and washed with PBST buffer (×3). Wells were then treated with Aβ42 samples overnight at 4° C. […] Samples were diluted by 1:30 in PBS buffer before adding to a 96-well plate. After adding Aβ42 samples, the wells were washed (×3) with PBST buffer followed by the addition of 6E10 antibody (1/1000 dilution in 5% nonfat free milk in PBST buffer) for 1 h at r.t. Wells were washed (×5) with PBST buffer and treated with an anti-mouse HRP-conjugated IgG (1/10,000 dilution in 5% nonfat free milk in PBST buffer). Wells were washed (×5) with PBST buffer and treated with TMB Peroxidase EIA Substrate Kit (Biorad, Hercules, Calif., USA). The plates were developed until the color of the solution turned blue. The reaction was stopped by adding 100 μL of 1N H2SO4 to each well. The color of the solution changed to yellow from blue. The absorbance was recorded at 450 nm on a FlexStation 3 Multi-Mode Microplate reader from Molecular Devices (Sunnyvale, Calif., USA). Each sample was repeated in triplicate.

Neuro-2a cells = assay: Effect of compound alone on Neuro-2a cell viability; assay type: cell-based, mouse; conditions: for toxicity of compound alone to Neuro-2a cells: matched cytotoxic experimental conditions, no Aβ42
Experimental: To investigate the toxic effect of the peptide alone on cell viability, solution (B) without the oligopyridylamide compound was mixed with solution (A), while the effect of the oligopyridylamide compound alone was determined by adding solution (A) without peptide to solution (B). The effect of oligopyridylamides on seed-catalyzed Aβ42 aggregation was probed by preparing an additional solution (C) containing 0.5 μM seeds. The volume contributed by solution (C) was taken into account in preparing solution (B). Solution (C) was mixed with solution (B), and the resulting mixture was then added to solution (A) shortly before addition to the wells. To study the effect of oligopyridylamides on the oligomeric states of Aβ42, solution (A) was mixed with solution (B) without inhibitor and incubated at room temperature for 1, 2 or 3 h. Subsequently, 50 μM oligopyridylamides was added to the mixture, which was then immediately added to the cells. […] The MTS reagent was incubated for 2.5 h at 37° C., and absorbance of the soluble formazan product (λ=490 nm) of MTS reduction was measured on a Synergy H1MF Multi-Mode microplate-reader (BioTek, Winooski, Vt., USA), with a reference wavelength of 650 nm to subtract the background. Wells treated with a solution containing serum-free DMEM, 200 μM NaOH, 0.1×PBS and 0.5% (v/v) DMSO served as control. MTS reduction was determined from the ratio of the absorbance of the treated wells to the control wells. Each data point represents an average of four independent quadruplet-well trials.

Aβ42 [3] = target: T2, Aβ42; assay: ThT-based kinetic assay of Aβ42 aggregation; assay type: biochemical; conditions: 5 μM Aβ42, equimolar, compound added at 2 h
[4] = system: Aβ42 mediated toxicity in mouse neuroblastoma (N2a) cells; assay: Aβ42 mediated toxicity in Neuro-2a cells (MTS cell viability); assay type: cell-based; conditions: for IC50: 5 μM Aβ42, N2a cells, read-out: IC50 (concentration required to inhibit 50% cell toxicity induced by 5 μM Aβ42); for cell viability, delayed addition: in % (unit assumed)
[5] = mouse/rat NG108-15, N2a, 5 μM Aβ42 + seeds (10% v/v), 5 μM compound, without compound 31%, read-out: cell viability, seed-induced Aβ42 cytotoxicity

| effect on aggregation of IAPP (ThT) (IAPP; 20 μM IAPP, equimolar ratio (FIG. 3b, 3c, 13)) | Aβ42 oligomers by ELISA on delayed addition (Aβ42 [2]) | ELISA absorbance (soluble Aβ42 oligomers, OMAB) (Aβ42 [2]) | effect on Aβ42 amyloid reaction on delayed addition (Aβ42 [3]) | Structure (SMILES) | effect on IAPP fibrillation / amyloid formation (ThT) (IAPP) | effect on seed-catalyzed Aβ42 fibrillation (Aβ42 [1]) | cell viability, compound alone (Neuro-2a cells; 4 μM ADH-41 + 1 μM ADH-41F, N2a cells, 24 h) | toxicity of compound alone to Neuro-2a cells (Neuro-2a cells) | IC50 [4] | cell viability, delayed addition ([4]; ADH-41 added after 24 h of exposure to 5 μM Aβ42) | cell viability, delayed addition ([4]; ADH-41 added after 48 h of exposure to 5 μM Aβ42) | IC50 ([4]; mouse/rat NG108-15, N2a) | viability at 5 µM ([4]; mouse/rat NG108-15, N2a, 24 h, read-out: cell viability) | viability at 5 µM [4, 5] | viability at 5 µM ([4]; mouse/rat NG108-15, N2a, read-out: cell viability, delayed addition) |
| --- | --- | --- | --- | --- | --- | --- | --- | --- | --- | --- | --- | --- | --- | --- | --- |
| agonist | no evidence of oligomers | significantly lower | effective in inhibiting | COC(=O)c1ccc(NC(=O)c2ccc(NC(=O)c3ccc([N+](=O)[O-])c(OCc4ccccc4)n3)c(OCCCN)n2)c(OCCCN)n1 [ADH-41] | did not have any effect; also recorded: no effect | completely arrested; also recorded: completely inhibits; also recorded: completely suppressed | 98% | not toxic | 1400 ± 100 nM | 79±2 | 102±2 | 1450 nM | 99% | 63% | 93 ± 2% |
| – | no evidence of oligomers | significantly lower | effective in inhibiting | COC(=O)c1ccc(NC(=O)c2ccc(NC(=O)c3ccc(NC(=O)c4ccc([N+](=O)[O-])c(OCC(C)C)n4)c(OCc4ccccc4)n3)c(OCC(=O)O)n2)c(OCC(=O)O)n1 [ADH-31] | completely suppressed | completely suppressed | – | not toxic | – | – | – | 2500 ± 100 nM | – | 69% | – |
